The nature of series [1]: Pharmacokinetic study of seven phenolic acids in rat plasma after oral administration of E. purpurea extract (UHPLC-ESI-MS/MS). The series is classed as in vivo. Particulars: male SD rats, oral E. purpurea extract 10 g/kg, n = 12, mean ± SD; for AUC(0-inf) / AUC(0-t) / Cmax / Tmax / half-life: Sprague-Dawley, rat. How it is done:
Twelve male Sprague-Dawley (SD) rats (body weight 220 ± 20 g) were provided by Heilongjiang University of Chinese Medicine (Harbin, China). Each rat fasted 12 h before administration, with free drinking during the experiment. Blood samples were obtained from rats after oral administration of the extract of E. purpurea with a dose of 10 g/kg body weight. Blood samples (0.25 mL) of the retinal venous plexus were taken at 0.083, 0.25, 0.75, 1.0, 1.5, 2, 3, 4, 6, 8, 12, 24 and 36 h, then moved immediately into a 0.5 mL centrifuge tube that was spread with heparin at each time point. Meanwhile, the animal blood was centrifuged at 13,000 rpm for 5 min at 4 °C. The plasma was frozen in a −20 °C refrigerator in case of deterioration.
First, the frozen plasma was thawed at room temperature and then a liquid–liquid extraction (LLE) method was utilized. Then, a 100 μL aliquot of each plasma sample was removed except for the calibration standards which was mixed with 10 μL IS into a 10 mL glass tube. We continued by adding 100 μL methanol and 100 μL 30% formic acid, vortex-mixing for 1 min, then extracted 3 mL ethyl acetate, vortex-mixing for 3 min, centrifuged for 5 min (3500 rpm), and transferred the upper organic layer into a new tube. The layer of ethyl acetate was dried with a stream of nitrogen, the dry residue was dissolved with a 100 μL mobile phase, vortexed for 2 min and samples were filtered by a 0.22 μm microporous membrane. A 10 μL aliquot was injected into the UHPLC-ESI-MS/MS system.
The rat plasma concentration-time curves of seven compounds were plotted. After oral administration of E. purpurea extract in twelve rats, the maximum drug concentration in rat plasma (Cmax) and the time to reach maximum drug concentration (Tmax) were directly obtained from concentration-time data. The elimination rate constant (Ke) was calculated by linear regression of the terminal points in a semi-log plot of the plasma concentration against time. The elimination half-life (T1/2) was calculated by the formula T1/2 = 0.693/Ke. Other pharmacokinetic parameters including the area under the concentration-time curve (AUC0→t), and the area under the plasma concentration-time curve to time infinity (AUC0→∞) were calculated using non-compartmental pharmacokinetics analysis.

Series [2] is described as follows: Stability of the analytes in rat plasma QC samples under different storage conditions. Format: physicochemical. The conditions noted are these: post-preparation samples, 12 h at 4 °C, n = 6. How it is done:
The post-preparation samples were analyzed after storage for 12 h at 4 °C. The peak area ratio response of stability samples was determined and versus those freshly prepared. For all stability results, the analyzing samples were considered stable when the percentage of relative error (RE) was within ±15% compared with freshly prepared QC samples.

Assay in series [3]: as above
Format: physicochemical. The conditions noted are these: n = 6; for Stability (RE%) Short-Term: 4 h at room temperature; for Stability (RE%) Freeze-Thaw: three freeze-thaw cycles (−20 °C / ambient); for Stability (RE%) Long-Term: −20 °C for 2 weeks.

Results on seven compounds are retold here after paper PMC6151385, “Simultaneous Determination of Seven Phenolic Acids in Rat Plasma Using UHPLC-ESI-MS/MS after Oral Administration of Echinacea purpurea Extract” (Molecules : A Journal of Synthetic Chemistry and Natural …, 2017).

Broadly, the AUC(0-inf) is the area under the concentration-time curve extrapolated to infinity. A lower AUC(0-inf) goes with low exposure. The term AUC(0-t) denotes the area under the concentration-time curve up to a stated or last time point. A higher AUC(0-t) goes with high exposure. One may read the Cmax as the peak of the concentration-time curve. For orientation: Tmax means the time at which the peak concentration occurs. Broadly, the half-life is the time in which the quantity being followed falls by half.

On to `O=C(O)c1ccc(O)c(O)c1` [3,4-Dihydroxy benzoic acid, 3,4-dihydroxybenzoic acid], for which, in series [1], the area under the curve AUC(0-inf) was found to be 2050 ± 116 ng·h/mL, the area under the curve AUC(0-t) stood at 1930 ± 123 ng·h/mL, the maximum concentration (Cmax) worked out at 127 ± 18.1 ng/mL and the time of peak concentration (Tmax) came to 0.77 ± 0.07 h. The compound also showed a half-life in series [1] of 7.45 ± 0.87 h. Also, the “Stability (RE%) Post-Preparative” value in series [2] (high QC) is recorded as −4.01%. In series [2] (low QC), the “Stability (RE%) Post-Preparative” value stood at 9.29%. The “Stability (RE%) Post-Preparative” value in series [2] (medium QC) was −5.47%. For the same compound, in series [3] (high QC), the “Stability (RE%) Short-Term” value is 4.80%, the “Stability (RE%) Freeze-Thaw” value was −0.52% and the “Stability (RE%) Long-Term” value is 3.65%. Moreover, in series [3] (low QC), the “Stability (RE%) Short-Term” value was determined as 2.03%, the “Stability (RE%) Freeze-Thaw” value was −0.11% and the “Stability (RE%) Long-Term” value is −2.93%. In series [3] (medium QC), the “Stability (RE%) Short-Term” value worked out at 10.18%, the “Stability (RE%) Freeze-Thaw” value is on record as 6.57% and the “Stability (RE%) Long-Term” value was found to be 2.30%.
As for `COc1cc(/C=C/C(=O)O)ccc1O` [Ferulic acid, ferulic acid], in series [1], the AUC(0-inf) worked out at 6020 ± 498 ng·h/mL, the AUC(0-t) is 5620 ± 453 ng·h/mL, the Cmax was 359 ± 43.8 ng/mL and the time to peak (Tmax) is 8 h. The compound also gave a half-life in series [1] of 8.48 ± 0.71 h. Besides, in series [2] (high QC), the “Stability (RE%) Post-Preparative” value was −4.91%. Also, the “Stability (RE%) Post-Preparative” value in series [2] (low QC) is given as −0.89%. The “Stability (RE%) Post-Preparative” value in series [2] (medium QC) stood at 4.84%. For the same compound, in series [3] (high QC), the “Stability (RE%) Short-Term” value is given as −8.77%, the “Stability (RE%) Freeze-Thaw” value is reported as −13.12% and the “Stability (RE%) Long-Term” value is reported as −1.89%. In series [3] (low QC), the “Stability (RE%) Short-Term” value is −4.21%, the “Stability (RE%) Freeze-Thaw” value is reported as −7.10% and the “Stability (RE%) Long-Term” value is reported as 7.93%. In series [3] (medium QC), the “Stability (RE%) Short-Term” value came out at 4.61%, the “Stability (RE%) Freeze-Thaw” value is −3.80% and the “Stability (RE%) Long-Term” value was determined as 6.80%.
With `O=C(O)c1ccc(O)cc1` [4-Hydroxy benzoic acid, 4-hydroxybenzoic acid], in series [1], the AUC(0-inf) worked out at 1950 ± 176 ng·h/mL, the AUC(0-t) was found to be 1640 ± 122 ng·h/mL, the concentration peaked (Cmax) at 145 ± 11.6 ng/mL and the Tmax worked out at 1.96 ± 0.14 h. The half-life in series [1] was 14.9 ± 5.37 h. Besides, the “Stability (RE%) Post-Preparative” value in series [2] (high QC) is 7.71%. Moreover, the “Stability (RE%) Post-Preparative” value in series [2] (low QC) was −6.42%. Further, the “Stability (RE%) Post-Preparative” value in series [2] (medium QC) stood at 10.47%. Moreover, in series [3] (high QC), the “Stability (RE%) Short-Term” value is given as −2.50%, the “Stability (RE%) Freeze-Thaw” value was −1.01% and the “Stability (RE%) Long-Term” value stood at 2.81%. For the same compound, in series [3] (low QC), the “Stability (RE%) Short-Term” value worked out at 10.62%, the “Stability (RE%) Freeze-Thaw” value is reported as 10.03% and the “Stability (RE%) Long-Term” value is −3.31%. In series [3] (medium QC), the “Stability (RE%) Short-Term” value is −0.46%, the “Stability (RE%) Freeze-Thaw” value is given as 2.63% and the “Stability (RE%) Long-Term” value was determined as 0.21%.
As to `COc1cc(C(=O)O)ccc1O` [Vanillic acid, vanillic acid], in series [1], the AUC(0-inf) is 3440 ± 234 ng·h/mL, the AUC(0-t) is 3140 ± 264 ng·h/mL, the highest level (Cmax) was 228 ± 11.9 ng/mL and the Tmax was determined as 0.75 h. Besides, the T1/2 in series [1] is given as 8.89 ± 1.12 h. The “Stability (RE%) Post-Preparative” value in series [2] (high QC) is −8.03%. Besides, the “Stability (RE%) Post-Preparative” value in series [2] (low QC) is listed as 9.11%. The “Stability (RE%) Post-Preparative” value in series [2] (medium QC) is on record as −6.34%. In series [3] (high QC), the “Stability (RE%) Short-Term” value is 1.59%, the “Stability (RE%) Freeze-Thaw” value amounted to 5.28% and the “Stability (RE%) Long-Term” value is recorded as −0.32%. For the same compound, in series [3] (low QC), the “Stability (RE%) Short-Term” value is given as 2.24%, the “Stability (RE%) Freeze-Thaw” value is −6.56% and the “Stability (RE%) Long-Term” value is reported as 2.91%. In series [3] (medium QC), the “Stability (RE%) Short-Term” value was −0.67%, the “Stability (RE%) Freeze-Thaw” value was 5.74% and the “Stability (RE%) Long-Term” value is −0.37%.
For the compound `O=C(O)/C=C/c1ccc(O)c(O)c1` [Caffeic acid, caffeic acid], in series [1], the total exposure AUC(0-inf) was found to be 9330 ± 442 ng·h/mL, the exposure AUC(0-t) came out at 9220 ± 453 ng·h/mL, the Cmax came out at 855 ± 35.9 ng/mL and the time of peak concentration (Tmax) is 8 h. Besides, the half-life in series [1] was 5.31 ± 0.5 h. Besides, the “Stability (RE%) Post-Preparative” value in series [2] (high QC) is 9.83%. Besides, the “Stability (RE%) Post-Preparative” value in series [2] (low QC) is reported as 10.35%. The “Stability (RE%) Post-Preparative” value in series [2] (medium QC) amounted to 3.89%. Besides, in series [3] (high QC), the “Stability (RE%) Short-Term” value was 6.12%, the “Stability (RE%) Freeze-Thaw” value turned out to be 6.15% and the “Stability (RE%) Long-Term” value is reported as −1.54%. In addition, in series [3] (low QC), the “Stability (RE%) Short-Term” value turned out to be 7.45%, the “Stability (RE%) Freeze-Thaw” value is 7.79% and the “Stability (RE%) Long-Term” value was determined as 6.01%. For the same compound, in series [3] (medium QC), the “Stability (RE%) Short-Term” value is −0.16%, the “Stability (RE%) Freeze-Thaw” value turned out to be 2.18% and the “Stability (RE%) Long-Term” value worked out at 1.00%.
In the case of `O=C(O)/C=C/c1ccc(O)cc1` [p-Coumaric acid, p-coumaric acid], in series [1], the total exposure AUC(0-inf) is 3440 ± 218 ng·h/mL, the AUC(0-t) amounted to 3130 ± 156 ng·h/mL, the highest concentration (Cmax) amounted to 293 ± 16.4 ng/mL and the Tmax came out at 0.75 h. Besides, in series [1], the half-life is 9.32 ± 1.29 h. In addition, in series [2] (high QC), the “Stability (RE%) Post-Preparative” value is reported as 7.12%. The “Stability (RE%) Post-Preparative” value in series [2] (low QC) was determined as 8.52%. In addition, the “Stability (RE%) Post-Preparative” value in series [2] (medium QC) was 11.50%. Also, in series [3] (high QC), the “Stability (RE%) Short-Term” value is reported as −4.81%, the “Stability (RE%) Freeze-Thaw” value is −8.78% and the “Stability (RE%) Long-Term” value was −5.30%. In addition, in series [3] (low QC), the “Stability (RE%) Short-Term” value is on record as −3.59%, the “Stability (RE%) Freeze-Thaw” value was −7.57% and the “Stability (RE%) Long-Term” value was −6.75%. In addition, in series [3] (medium QC), the “Stability (RE%) Short-Term” value was determined as 1.57%, the “Stability (RE%) Freeze-Thaw” value is listed as −0.82% and the “Stability (RE%) Long-Term” value is given as −5.40%.
For the compound `COc1cc(C(=O)O)cc(OC)c1O` [Syringic acid, syringic acid], in series [1], the AUC(0-inf) amounted to 1950 ± 164 ng·h/mL, the AUC(0-t) is 1650 ± 133 ng·h/mL, the Cmax was determined as 122 ± 16.4 ng/mL and the Tmax was 1.54 ± 0.14 h. This compound gave a half-life in series [1] of 13.2 ± 1.66 h. The “Stability (RE%) Post-Preparative” value in series [2] (high QC) was −6.08%. Moreover, the “Stability (RE%) Post-Preparative” value in series [2] (low QC) is −10.74%. Also, the “Stability (RE%) Post-Preparative” value in series [2] (medium QC) is −7.64%. Further, in series [3] (high QC), the “Stability (RE%) Short-Term” value is −5.73%, the “Stability (RE%) Freeze-Thaw” value was −2.61% and the “Stability (RE%) Long-Term” value is recorded as −1.30%. Further, in series [3] (low QC), the “Stability (RE%) Short-Term” value is recorded as −1.95%, the “Stability (RE%) Freeze-Thaw” value is listed as −3.75% and the “Stability (RE%) Long-Term” value is recorded as −0.66%. Moreover, in series [3] (medium QC), the “Stability (RE%) Short-Term” value is −1.50%, the “Stability (RE%) Freeze-Thaw” value came to 4.48% and the “Stability (RE%) Long-Term” value is listed as −0.79%.
